Experimental data from patent US20070104780A1, “Formulation comprising a drug of low water solubility and method of use thereof” (priority 2005, published 2007).
Converted amounts (≈) assume the structure as drawn. One block for each compound: values may come before it.

Columns and labels:
Type in all cases: physicochemical
[1] = Aqueous solubility of the drugs
Source text: It will be recognized that aqueous solubility of many drugs is pH dependent; in the case of such drugs the solubility of interest herein is at a physiologically relevant pH, for example a pH of about 1 to about 8.

[2] = Solubility of ABT-102 in various carriers (Example 14); details: thermodynamic from solid, room temperature, read-out: Solubility (S)
Procedure: An accurately weighed quantity of about 1 g of each excipient was weighed into three glass vials. Semisolid excipients were warmed in a water bath at around 50-60° C. until completely melted before weighing. An accurately weighed quantity of ABT-102 of about 25 mg, 50 mg and 100 mg was weighed into each of the three vials containing the same excipients. The vials were closed tightly and mixed for around 30 seconds by vortexing and then sonicating in a warm water bath. The vials were visually observed for dissolution after 5-6 hours. Solubility is reported in Table 11 below based on volume of carrier providing a clear solution and volume of carrier where solid was present. All solubility values were determined at room temperature.

[3] = Solubility of isotretinoin in Phosal 53 MCT and typical solvents (Example 11)
[4] = Screening of carriers for solubility of ABT-869 (Example 1); details: thermodynamic from solid, room temperature, read-out: Solubility (S)
Procedure: Approximately 20 mg of ABT-869 was weighed and added to a 0.3 ml vial. A test carrier (100 μl) was then added by pipette to the vial. The vial was three times alternately vortexed for about 30 seconds and sonicated for about 1 minute to ensure adequate wetting and dispersion of the ABT-869. The vial was wrapped in aluminum foil, placed in a Labquake™ rotator and rotated for a minimum of 24 hours. […] If solid was still present, carrier was added until all solid had dissolved and the resulting solution was clear. Approximate solubility is reported in Table 1 below as a range based on volume of carrier providing a clear solution and volume of carrier where solid was present. All solubility values were determined at room temperature.

[5] = Solubility of ABT-869 in carriers comprising Phosal 53 MCT (Example 2, HPLC); details: 25° C.
Procedure: Solubility of ABT-869 was measured in various carriers comprising Phosal 53 MCT™. Approximately 100-400 mg of ABT-869 was weighed and added to a 4 ml glass vial, to which 2 ml of a test carrier was added. The vial was then vortexed and sonicated for 10 minutes. The vials were wrapped with aluminum foil, placed in a water bath at 25° C. and agitated for 2 days. The contents of the vials were then filtered and the filtrate diluted 25× with mobile phase for HPLC analysis.

[6] = Solubility of paricalcitol in various carriers (Example 13)

solubility ([1]; water, pH 1.1, simulated gastric fluid, read-out: solubility in water): ~0.102 µg/mL (≈ 0.000293 mM)
solubility ([1]; water, pH 6.8, aqueous buffer, read-out: solubility in water): ~0.0573 µg/mL (≈ 0.000164 mM)
solubility ([2]; oil or lipid, carrier Gelucire 44/14): 25 to 50 mg/mL (≈ 71.7 to 143 mM)
solubility ([2]; oil or lipid, carrier Phosal 50 PG): 50 to 100 mg/mL (≈ 143 to 287 mM)
solubility ([2]; oil or lipid, carrier Phosal 53 MCT): 50 to 100 mg/mL (≈ 143 to 287 mM)
solubility ([2]; oil or lipid, carrier Vit.E TPGS): < 200 mg/mL
solubility ([2]; organic solvent or mixture, carrier PEG 400): 71 mg/mL (≈ 204 mM)
solubility ([2]; organic solvent or mixture, carrier VP Dimer (VPD)): 160 mg/mL (≈ 459 mM)
Compound: CC(C)(C)c1ccc2c(c1)CC[C@H]2NC(=O)Nc1cccc2[nH]ncc12 [ABT-102]

solubility [1]: ~5 µg/mL (≈ 0.0166 mM)
solubility limit ([3]; in Phosal 53 MCT at 25° C.): 72 to 78 mg/g
solubility ([3]; in caprylic/capric triglycerides): 5.1 mg/g
solubility ([3]; in ethanol): 16.7 mg/g
solubility ([3]; in oleic acid): 19.1 mg/g
solubility ([3]; in soybean oil): 2.4 mg/g
Compound: CC1=C(/C=C/C(C)=C/C=C/C(C)=C\C(=O)O)C(C)(C)CCC1 [Isotretinoin]

solubility ([4]; oil or lipid, carrier 10% ethanol, 90% Phosal 50 PG): 50 to 67 mg/mL (≈ 133 to 178 mM)
solubility ([4]; oil or lipid, carrier 10% ethanol, 90% Phosal 53 MCT): 67 to 100 mg/mL (≈ 178 to 266 mM)
solubility ([4]; oil or lipid, carrier 100% Captex 355 EP): < 50 mg/mL
solubility ([4]; organic solvent or mixture, carrier 10% ethanol, 20% polysorbate 80, 70% PEG 400): > 200 mg/mL
solubility ([4]; organic solvent or mixture, carrier 10% ethanol, 30% Phosal 50 PG, 60% PEG 400): > 200 mg/mL
solubility ([4]; organic solvent or mixture, carrier 10% ethanol, 90% PEG 400): > 200 mg/mL
solubility ([4]; organic solvent or mixture, carrier 100% PEG 400): > 200 mg/mL
solubility ([5]; carrier 5% ethanol, 95% Phosal 53 MCT): 115 mg/g
solubility ([5]; carrier 10% PEG 400, 0.5% Tween 80, 4.5% ethanol, 85% Phosal 53 MCT): >122 mg/g
solubility ([5]; carrier 10% PEG 400, 5% ethanol, 85% Phosal 53 MCT): >123 mg/g
solubility ([5]; carrier 10% PEG 400, 90% Phosal 53 MCT): 139 mg/g
solubility ([5]; carrier 10% ethanol, 90% Phosal 53 MCT): 97 mg/g
solubility ([5]; carrier 20% PEG 400, 80% Phosal 53 MCT): 166 mg/g
solubility ([5]; carrier 30% PEG 400, 70% Phosal 53 MCT): 185 mg/g
solubility ([5]; carrier 40% PEG 400, 60% Phosal 53 MCT): 199 mg/g
solubility ([5]; carrier 50% PEG 400, 50% Phosal 53 MCT): 221 mg/g
solubility ([5]; carrier 100% Phosal 53 MCT): 95 mg/g
solubility ([1]; pH 1, simulated gastric fluid): ~1.7 µg/mL (≈ 0.00453 mM)
solubility ([1]; pH 5, aqueous buffer): ~0.027 µg/mL (≈ 7.19e-05 mM)
Compound: Cc1ccc(F)c(NC(=O)Nc2ccc(-c3cccc4[nH]nc(N)c34)cc2)c1 [ABT-869, N-[4-(3-amino-1H-indazol-4-yl)phenyl]-N′-(2-fluoro-5-methylphenyl)urea]

solubility ([1]; pH 7.4, aqueous buffer): 0.0115 µg/mL (≈ 2.76e-05 mM)
Solubility (mean of 2 tests) ([6]; carrier 10% hydroxypropyl-β-cyclodextrin in PEG): 734 µg/g
Solubility (mean of 2 tests) ([6]; carrier Neobee M5 + 0.5% ethanol): 194 µg/g
Solubility (mean of 2 tests) ([6]; carrier PEG 400): 1,085 μg/g
Solubility (mean of 2 tests) ([6]; carrier Phosal 50 SA): 752 µg/g
Solubility (mean of 2 tests) ([6]; carrier Phosal 53 MCT): 1,459 μg/g
Solubility (mean of 2 tests) ([6]; carrier castor oil): 344 µg/g
Solubility (mean of 2 tests) ([6]; carrier glyceryl monooleate): 1,067 μg/g
Solubility (mean of 2 tests) ([6]; carrier medium chain monoglycerides (Capmul MCM)): 5,057 μg/g
Solubility (mean of 2 tests) ([6]; carrier medium chain triglycerides (Neobee M5)): 165 µg/g
Solubility (mean of 2 tests) ([6]; carrier oleic acid): 819 µg/g
Solubility (mean of 2 tests) ([6]; carrier polysorbate 80 (Tween 80)): 1,353 μg/g
Solubility (mean of 2 tests) ([6]; carrier propylene glycol): 5,791 μg/g
Solubility (mean of 2 tests) ([6]; carrier triethyl citrate): 453 µg/g
Compound: C[C@H](/C=C/[C@H](C)C(C)(C)O)[C@H]1CC[C@H]2/C(=C/C=C3C[C@@H](O)C[C@H](O)C3)CCC[C@]12C [paricalcitol]
